Values quoted from earlier work as cited in patent US20170016004A1, “DDX5 AND ASSOCIATED NON-CODING RNAs AND MODULATION OF TH17 EFFECTOR FUNCTION” (priority 2015, published 2017).

Test system: ileal and colonic SMAD7
Conditions: oral

mongersen
treatment of Crohn's Disease: used successfully
